Assay results: patent US20080009418A1, “Selective Inhibitors” (Alchemia LTD., priority 2004, published 2008)

Tests used:
[1] = target: T1, Human δ-opioid (DOP) (Homo sapiens, UniProt P41143); assay: Radioligand binding, human δ-opioid (DOP) membranes, FlashPlate, [3H]-Bremazocine; conditions: compound at 10 μM; [3H]-Bremazocine, human DOP membranes
T1 construct: purchased Perkin Elmer Biosignal
Method in brief: (§1)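 Cloned human receptor membranes were coated onto FlashPlate wells and incubated with radioligand and compound (added from a 0.5 mM DMSO daughter plate) for 1 hour at room temperature in the dark. Scintillation counting gave percent inhibition, with DMSO defining total and reference ligand defining non-specific binding.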

[2] = target: T2, Human melanin-concentrating hormone (MCH1) (Homo sapiens, UniProt Q99705); assay: Radioligand binding, human melanin-concentrating hormone MCH1 membranes, FlashPlate, [125I]-S36057; conditions: compound at 10 μM, [125I]-S36057, human MCH1 membranes
T2 construct: purchased Perkin Elmer Biosignal
T2 sequence (Q99705 whole entry): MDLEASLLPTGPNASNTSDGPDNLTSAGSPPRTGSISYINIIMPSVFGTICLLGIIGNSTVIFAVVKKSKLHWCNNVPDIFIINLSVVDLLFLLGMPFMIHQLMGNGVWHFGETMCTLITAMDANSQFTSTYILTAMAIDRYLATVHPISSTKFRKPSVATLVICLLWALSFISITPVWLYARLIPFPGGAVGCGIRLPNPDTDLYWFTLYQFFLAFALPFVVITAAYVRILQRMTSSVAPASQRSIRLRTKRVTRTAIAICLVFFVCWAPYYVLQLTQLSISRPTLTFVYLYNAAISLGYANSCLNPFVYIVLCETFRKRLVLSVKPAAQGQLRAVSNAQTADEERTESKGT
Method in brief: as §1

[3] = target: T3, Human κ-Opioid (KOP) (Homo sapiens, UniProt P41145); assay: Radioligand binding, human κ-opioid (KOP) membranes, filtration, [3H]-Diprenorphine; conditions: compound at 10 μM, [3H]-Diprenorphine, human KOP membranes
T3 construct: purchased Perkin Elmer Biosignal
T3 sequence (P41145 whole entry): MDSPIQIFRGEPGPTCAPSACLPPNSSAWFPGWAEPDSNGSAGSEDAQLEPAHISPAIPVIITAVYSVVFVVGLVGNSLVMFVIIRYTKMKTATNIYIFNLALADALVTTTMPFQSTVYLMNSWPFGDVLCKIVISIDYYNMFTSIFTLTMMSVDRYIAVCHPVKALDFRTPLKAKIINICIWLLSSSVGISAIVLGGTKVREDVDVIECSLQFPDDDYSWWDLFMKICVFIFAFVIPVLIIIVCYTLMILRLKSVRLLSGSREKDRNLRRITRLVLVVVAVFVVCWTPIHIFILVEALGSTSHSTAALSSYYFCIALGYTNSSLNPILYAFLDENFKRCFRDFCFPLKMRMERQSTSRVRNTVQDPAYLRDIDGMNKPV
Method in brief: (§2)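 Membranes from cloned human receptors were incubated with compound and radioligand for 1 hour at room temperature. Bound ligand was collected on 0.3% PEI-soaked filters, washed with cold 50 mM Tris-HCl pH 7.4, and counted by scintillation. Percent inhibition was computed against DMSO totals and reference-ligand nonspecific wells.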

[4] = target: T4, Human Melanocortin (MC3) (Homo sapiens, UniProt P41968); assay: Radioligand binding, human melanocortin MC3 membranes, FlashPlate, [125I]-NDP-αMSH; conditions: compound at 10 μM, [125I]-NDP-αMSH, human MC3 membranes
T4 construct: purchased Perkin Elmer Biosignal
T4 sequence (P41968 whole entry): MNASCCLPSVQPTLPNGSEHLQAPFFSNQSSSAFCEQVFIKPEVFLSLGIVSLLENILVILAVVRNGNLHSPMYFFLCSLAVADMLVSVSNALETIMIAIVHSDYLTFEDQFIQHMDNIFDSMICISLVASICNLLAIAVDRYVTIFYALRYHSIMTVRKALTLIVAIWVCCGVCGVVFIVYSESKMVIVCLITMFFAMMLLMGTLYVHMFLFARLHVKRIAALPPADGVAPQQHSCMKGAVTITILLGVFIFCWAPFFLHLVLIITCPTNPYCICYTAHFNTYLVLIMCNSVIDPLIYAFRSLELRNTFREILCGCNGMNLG
Method in brief: as §1

[5] = target: T5, Human opioid (ORL1) (Homo sapiens, UniProt P41146); assay: Radioligand binding, human opioid ORL1 membranes, FlashPlate, [125I]-Nociceptin; conditions: compound at 10 μM; [125I]-Nociceptin, human ORL1 membranes; 10 µM
T5 construct: purchased Perkin Elmer Biosignal
T5 sequence (P41146 whole entry): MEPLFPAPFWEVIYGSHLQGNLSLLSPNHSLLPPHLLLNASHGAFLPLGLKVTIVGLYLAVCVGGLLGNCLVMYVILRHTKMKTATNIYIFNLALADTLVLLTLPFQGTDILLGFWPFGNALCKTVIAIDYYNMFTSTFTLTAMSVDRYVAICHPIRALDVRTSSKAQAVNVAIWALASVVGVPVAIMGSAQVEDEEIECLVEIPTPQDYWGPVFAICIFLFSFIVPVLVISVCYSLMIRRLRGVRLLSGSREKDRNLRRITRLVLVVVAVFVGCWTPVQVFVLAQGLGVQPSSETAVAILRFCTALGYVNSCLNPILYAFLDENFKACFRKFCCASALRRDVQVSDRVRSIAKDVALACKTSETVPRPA
Method in brief: as §1

[6] = target: T6, Human neurokinin (NK1) (Homo sapiens, UniProt P25103); assay: Radioligand binding, human neurokinin NK1 membranes, filtration, [125I]-Substance P; conditions: compound at 10 μM; [125I]-Substance P, human NK1 membranes
T6 construct: purchased Perkin Elmer Biosignal
T6 sequence (P25103 whole entry): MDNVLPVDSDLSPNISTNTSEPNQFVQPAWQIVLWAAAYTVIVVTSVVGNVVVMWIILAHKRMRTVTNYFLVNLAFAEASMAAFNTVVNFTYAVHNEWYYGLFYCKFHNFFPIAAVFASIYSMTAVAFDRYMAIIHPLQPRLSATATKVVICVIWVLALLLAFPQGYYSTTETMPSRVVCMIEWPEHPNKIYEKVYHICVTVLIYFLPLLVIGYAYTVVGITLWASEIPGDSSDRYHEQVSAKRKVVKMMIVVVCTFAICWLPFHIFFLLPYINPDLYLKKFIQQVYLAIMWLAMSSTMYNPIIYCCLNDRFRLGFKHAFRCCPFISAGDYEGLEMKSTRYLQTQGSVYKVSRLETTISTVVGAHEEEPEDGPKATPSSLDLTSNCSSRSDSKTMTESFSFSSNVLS
Method in brief: as §2

[7] = target: T7, Human melanocortin (MC5) (Homo sapiens, UniProt P33032); assay: Radioligand binding, human melanocortin MC5 membranes, FlashPlate, [125I]-NDP-αMSH; conditions: compound at 10 μM; [125I]-NDP-αMSH, human MC5 membranes
T7 construct: purchased Perkin Elmer Biosignal
T7 sequence (P33032 whole entry): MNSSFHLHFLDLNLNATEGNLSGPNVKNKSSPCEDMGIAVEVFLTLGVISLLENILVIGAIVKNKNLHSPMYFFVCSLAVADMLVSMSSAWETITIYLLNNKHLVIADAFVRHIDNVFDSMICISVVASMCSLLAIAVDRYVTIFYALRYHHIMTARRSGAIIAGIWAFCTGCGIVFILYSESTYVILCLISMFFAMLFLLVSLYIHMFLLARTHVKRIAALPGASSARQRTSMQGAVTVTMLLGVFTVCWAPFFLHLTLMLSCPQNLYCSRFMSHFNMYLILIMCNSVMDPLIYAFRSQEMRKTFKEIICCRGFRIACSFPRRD
Method in brief: as §1

[8] = target: T8, Human Melanocortin (MC4) (Homo sapiens, UniProt P32245); assay: Radioligand binding, human melanocortin MC4 membranes, FlashPlate, [125I]-NDP-αMSH; conditions: compound at 10 μM, [125I]-NDP-αMSH, human MC4 membranes
T8 construct: purchased Perkin Elmer Biosignal
T8 sequence (P32245 whole entry): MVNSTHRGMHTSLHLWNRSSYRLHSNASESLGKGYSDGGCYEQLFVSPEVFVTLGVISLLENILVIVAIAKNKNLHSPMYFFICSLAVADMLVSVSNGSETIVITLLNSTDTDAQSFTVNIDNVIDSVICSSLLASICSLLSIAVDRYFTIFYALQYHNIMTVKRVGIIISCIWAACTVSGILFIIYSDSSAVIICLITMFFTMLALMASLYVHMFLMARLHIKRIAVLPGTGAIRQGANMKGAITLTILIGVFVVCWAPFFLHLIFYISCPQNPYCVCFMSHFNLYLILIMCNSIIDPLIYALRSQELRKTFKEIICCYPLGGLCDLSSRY
Method in brief: as §1

[9] = target: T9, Human μ-opioid (MOP) (Homo sapiens, UniProt P35372); assay: Radioligand binding, human μ-opioid (MOP) membranes, FlashPlate, [3H]-Naloxone; conditions: compound at 10 μM, [3H]-Naloxone, human MOP membranes
T9 construct: purchased Perkin Elmer Biosignal
T9 sequence (P35372 whole entry): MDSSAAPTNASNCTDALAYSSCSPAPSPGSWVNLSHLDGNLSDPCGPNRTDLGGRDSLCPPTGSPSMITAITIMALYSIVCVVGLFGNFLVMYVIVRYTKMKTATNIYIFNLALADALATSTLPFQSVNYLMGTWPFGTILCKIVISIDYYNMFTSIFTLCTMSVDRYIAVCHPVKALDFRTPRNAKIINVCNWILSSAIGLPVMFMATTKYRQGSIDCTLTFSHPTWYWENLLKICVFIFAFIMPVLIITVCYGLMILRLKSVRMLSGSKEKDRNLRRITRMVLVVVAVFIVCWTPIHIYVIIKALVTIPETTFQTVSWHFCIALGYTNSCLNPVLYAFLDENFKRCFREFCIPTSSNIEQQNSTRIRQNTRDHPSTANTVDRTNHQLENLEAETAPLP
Method in brief: as §1

[10] = target: T10, Mouse urotensin (mUR2) (Mus musculus, UniProt Q8VIH9); assay: Radioligand binding, mouse urotensin mUR2 membranes, FlashPlate, [125I]-Urotensin II; conditions: compound at 10 μM; [125I]-Urotensin II, mouse mUR2 membranes
T10 construct: purchased Perkin Elmer Biosignal
T10 sequence (Q8VIH9 1-385): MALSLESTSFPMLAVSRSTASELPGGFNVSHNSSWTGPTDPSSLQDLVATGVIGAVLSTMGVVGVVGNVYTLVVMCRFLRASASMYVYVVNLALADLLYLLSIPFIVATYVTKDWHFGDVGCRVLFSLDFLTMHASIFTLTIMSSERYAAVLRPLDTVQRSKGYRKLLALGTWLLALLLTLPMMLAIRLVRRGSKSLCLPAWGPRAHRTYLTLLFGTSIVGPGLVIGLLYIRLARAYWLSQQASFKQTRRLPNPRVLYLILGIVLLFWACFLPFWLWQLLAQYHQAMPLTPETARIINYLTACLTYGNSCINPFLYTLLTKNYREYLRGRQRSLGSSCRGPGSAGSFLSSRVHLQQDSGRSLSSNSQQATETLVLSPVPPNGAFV
Method in brief: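 Cloned mouse urotensin (mUR2) receptor membranes from Perkin Elmer Biosignal were immobilized in FlashPlate microplates using a proprietary coating. Each well got 19.5 μl buffer, then 0.5 μl of DMSO, reference ligand, or compound. Adding 5 μl of [125I]-Urotensin II, diluted to 5× final concentration in binding buffer, started binding. Plates were sealed with TopSeal-A and incubated 1 hour at room temperature in the dark. Wells were counted for 30 seconds each on a TopCount after a 60-second delay, and percentage inhibition was calculated.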

[11] = target: T11, Human neuropeptide Y (NPY-Y1) (Homo sapiens, UniProt P25929); assay: Radioligand binding, human neuropeptide Y NPY-Y1 membranes, FlashPlate, [125I]-PYY; conditions: compound at 10 μM; [125I]-PYY, human NPY-Y1 membranes
T11 construct: purchased Perkin Elmer Biosignal
T11 sequence (P25929 1-384): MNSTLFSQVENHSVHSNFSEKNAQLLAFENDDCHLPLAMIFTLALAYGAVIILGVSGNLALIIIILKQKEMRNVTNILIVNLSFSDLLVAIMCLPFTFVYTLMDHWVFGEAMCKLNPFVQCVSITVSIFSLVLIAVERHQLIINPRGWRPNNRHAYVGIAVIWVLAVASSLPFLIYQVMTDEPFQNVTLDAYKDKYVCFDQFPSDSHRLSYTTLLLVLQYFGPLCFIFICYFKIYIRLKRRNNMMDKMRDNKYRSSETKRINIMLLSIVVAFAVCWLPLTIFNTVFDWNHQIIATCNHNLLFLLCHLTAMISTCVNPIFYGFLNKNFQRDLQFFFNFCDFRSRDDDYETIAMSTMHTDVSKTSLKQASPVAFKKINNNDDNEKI
Method in brief: as §1

T1 sequence (P41143 whole entry): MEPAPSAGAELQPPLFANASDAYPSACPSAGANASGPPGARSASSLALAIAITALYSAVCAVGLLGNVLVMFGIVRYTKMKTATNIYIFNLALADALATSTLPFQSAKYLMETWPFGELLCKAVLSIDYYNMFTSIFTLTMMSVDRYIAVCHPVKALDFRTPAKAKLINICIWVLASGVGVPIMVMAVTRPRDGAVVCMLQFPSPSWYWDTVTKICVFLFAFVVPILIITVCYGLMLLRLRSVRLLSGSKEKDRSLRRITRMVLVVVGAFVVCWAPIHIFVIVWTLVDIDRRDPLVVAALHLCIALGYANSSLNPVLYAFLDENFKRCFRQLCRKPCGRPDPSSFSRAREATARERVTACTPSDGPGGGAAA

Structure (SMILES)	A1: inhibition of radioligand binding [1]	A6: inhibition of radioligand binding ([2]; 10 µM)	A2: inhibition of radioligand binding [3]	A3: inhibition of radioligand binding ([4]; 10 µM)	A10: inhibition of radioligand binding [5]	A8: inhibition of radioligand binding [6]	A5: inhibition of radioligand binding [7]	A4: inhibition of radioligand binding ([8]; 10 µM)	A7: inhibition of radioligand binding ([9]; 10 µM)	A11: inhibition of radioligand binding [10]	A9: inhibition of radioligand binding [11]	A6: inhibition of radioligand binding [2]	A7: inhibition of radioligand binding [9]	A2: inhibition of radioligand binding ([3]; 10 µM)	A3: inhibition of radioligand binding [4]	A4: inhibition of radioligand binding [8]
NCCCC(=O)NC1C(OCc2ccc3ccccc3c2)OC(COCc2ccc3ccccc3c2)C(O)C1OCc1ccc2ccccc2c1 (stereo not shown) [compound 393]	− (“−” indicates less than 50% inhibition at 10 μM)	− (“−” indicates less than 50% inhibition at 10 μM)	− (“−” indicates less than 50% inhibition at 10 μM)	+ (“+” indicates greater than 50% inhibition at 10 μM)	− (“−” indicates less than 50% inhibition at 10 μM)	+ (“+” indicates greater than 50% inhibition at 10 μM)	+ (“+” indicates greater than 50% inhibition at 10 μM)	+ (“+” indicates greater than 50% inhibition at 10 μM)	− (“−” indicates less than 50% inhibition at 10 μM)	− (“−” indicates less than 50% inhibition at 10 μM)	− (“−” indicates less than 50% inhibition at 10 μM)					
NCCCC(=O)NC1C(OCc2ccc3ccccc3c2)OC(COCc2ccccc2)C(O)C1OCc1ccc2ccccc2c1 (stereo not shown) [compound 394]	− (“−” indicates less than 50% inhibition at 10 μM)		− (“−” indicates less than 50% inhibition at 10 μM)	+ (“+” indicates greater than 50% inhibition at 10 μM)	− (“−” indicates less than 50% inhibition at 10 μM)	+ (“+” indicates greater than 50% inhibition at 10 μM)	+ (“+” indicates greater than 50% inhibition at 10 μM)	+ (“+” indicates greater than 50% inhibition at 10 μM)		− (“−” indicates less than 50% inhibition at 10 μM)	− (“−” indicates less than 50% inhibition at 10 μM)	− (“−” indicates less than 50% inhibition at 10 μM)	− (“−” indicates less than 50% inhibition at 10 μM)			
NCCCC(=O)NC1C(OCc2ccc3ccccc3c2)OC(COCc2ccc(Cl)cc2)C(O)C1OCc1ccc2ccccc2c1 (stereo not shown) [compound 395]	− (“−” indicates less than 50% inhibition at 10 μM)	− (“−” indicates less than 50% inhibition at 10 μM)			+ (“+” indicates greater than 50% inhibition at 10 μM)	+ (“+” indicates greater than 50% inhibition at 10 μM)	+ (“+” indicates greater than 50% inhibition at 10 μM)			− (“−” indicates less than 50% inhibition at 10 μM)	− (“−” indicates less than 50% inhibition at 10 μM)		− (“−” indicates less than 50% inhibition at 10 μM)	− (“−” indicates less than 50% inhibition at 10 μM)	+ (“+” indicates greater than 50% inhibition at 10 μM)	+ (“+” indicates greater than 50% inhibition at 10 μM)
NCCCC(=O)NC1C(OCc2ccc3ccccc3c2)OC(COCc2ccc3ccccc3c2)C(O)C1OCc1ccccc1 (stereo not shown) [compound 396]	− (“−” indicates less than 50% inhibition at 10 μM)	− (“−” indicates less than 50% inhibition at 10 μM)	− (“−” indicates less than 50% inhibition at 10 μM)	+ (“+” indicates greater than 50% inhibition at 10 μM)	− (“−” indicates less than 50% inhibition at 10 μM)	+ (“+” indicates greater than 50% inhibition at 10 μM)	+ (“+” indicates greater than 50% inhibition at 10 μM)	+ (“+” indicates greater than 50% inhibition at 10 μM)		− (“−” indicates less than 50% inhibition at 10 μM)	− (“−” indicates less than 50% inhibition at 10 μM)		− (“−” indicates less than 50% inhibition at 10 μM)			
NCCCC(=O)NC1C(OCc2ccc3ccccc3c2)OC(COCc2ccccc2)C(O)C1OCc1ccccc1 (stereo not shown) [compound 397]	− (“−” indicates less than 50% inhibition at 10 μM)		− (“−” indicates less than 50% inhibition at 10 μM)		+ (“+” indicates greater than 50% inhibition at 10 μM)	+ (“+” indicates greater than 50% inhibition at 10 μM)	− (“−” indicates less than 50% inhibition at 10 μM)	+ (“+” indicates greater than 50% inhibition at 10 μM)	− (“−” indicates less than 50% inhibition at 10 μM)	− (“−” indicates less than 50% inhibition at 10 μM)	− (“−” indicates less than 50% inhibition at 10 μM)	− (“−” indicates less than 50% inhibition at 10 μM)			− (“−” indicates less than 50% inhibition at 10 μM)	
